Results from patent US7943606B2, “Compositions and methods to control abnormal cell growth” (CanCure Laboratories, LLC, priority 2005, dated 2011).

Columns and labels:
[1] = test system: HL-60, HT-168, PC-3 and T47D cells; assay: Viability of four human cancer cell types by Trypan blue exclusion; assay type: cell-based
Procedure: PC-3 human prostate adenocarcinoma cells were cultured in 12-well plates in Ham's F12 cell culture medium supplemented with 7% fetal bovine serum; the medium was changed for fresh 10% medium 2 hours prior to treatments. HL-60 human leukemia cells (in flasks) and HT 168 human melanoma cells were cultured in RPMI 1640 medium supplemented with 10% FCS; treatment of HL-60 and HT-168 cells were performed in flasks and 12-well plates, respectively. T47D cells were cultured in 12-well plates in RPMI 1640 medium supplemented with 2 mM L-glutamine, 10 mM Hepes, 1 mM sodium pyruvate, 4.5 g/L glucose, 1.5 g/L sodium bicarbonate, 0.2 I.U. bovine insulin/ml, and 10% fetal bovine serum; the medium was changed for fresh 10% serum-containing medium 2 hours prior to treatments. All cells were incubated for 96 hours in the absence (□) or presence of 25 μM CCDTHT ? , 50 μM CCDTHT ? , or 75 μM CCDTHT (▪). In this experiment, the viability of the cell cultures was estimated by Trypan blue exclusion using hematocytometer, a technique well known to one having ordinary skill in the art. Three independently treated cell cultures, involving at least 300 cells for each treatment, were analyzed. The experimental error is indicated as std. dev.

3A-SubE cells = assay: Viability of 3A-SubE post crisis placenta cells (MTT assay); assay type: cell-based; details: 50 μM 48 hours, then 96 hours without CCDTHT
HepG2 cells = assay: Viability of HepG2 hepatoblastoma cells (MTT assay); assay type: cell-based, human; details: 50 and 100 μM, 10 days
Procedure: To quantify cell death, around the time when significant and characteristic morphological changes took place, cells were pulse-labeled for 10 minutes with [^3H]thymidine to measure DNA activity as described elsewhere [Tomono, M. and Kiss, Z. (1995), “Ethanol enhances the stimulatory effects of insulin and insulin-like growth factor-I on DNA synthesis in NIH 3T3 fibroblasts,” Biochem. Biophys. Res. Commun. 208, 63-67]. Also, cells were collected as suspensions using trypsin, an established method in cell biology, followed by re-plating of cells in fresh tissue culture medium. If no viable cells were obtained after one week in culture, it meant that the cells at the time of re-plating were dead. Survival values obtained with untreated cells were considered 100%. For the determination of relative number of viable cells after treatments, in most cases the MTT assay was used. This calorimetric assay is based on the ability of living cells, but not dead cells, to reduce 3-(4,5-dimethyl thiazol-2-yl)-2,5-diphenyltetrazolium bromide [Carmichael, J, De Graff, W. G., Gazdar, A. F., Minna, J. D. and Mitchell, J. B. (1987), “Evaluation of tetrazolium-based semi-automated calorimetric assay: Assessment of chemosensitivity testing,” Cancer Res. 47, 936-942]. For this assay, cells were plated in 96-well plates, and the MTT assay was performed both in untreated and treated cell cultures. […]

`CC[N+](C)(CC)CCOCc1ccc2sc3ccccc3c(=O)c2c1.[I-]` [CCDTHT, N,N-diethyl-N-methyl-2-[(9-oxo-9H-thioxanthen-2-yl)methoxy]-ethanaminium iodide] was tested, and the “number of viable cancer cells, HL-60, HT-168, PC-3 and T47D” value ([1]; 50-75 μM, four days) was “strongly decreased”, the inhibition at 25 µM ([1]; Homo sapiens, 25 μM, 96 hours, Trypan blue, read-out: inhibition of cell proliferation, HL60, HT-168, PC-3 and T47D cells) was 40 to 55% and the cytotoxicity at 75 µM ([1]; Homo sapiens, 75 μM, 96 hours, Trypan blue, read-out: decrease in the number of viable cells, HL60, HT-168, PC-3 and T47D cells) was 65 to 85%. For the same compound, the “reversibility: proliferation in fresh medium after treatment, 3A-SubE” value (3A-SubE cells) was “not sufficient to suppress proliferation” and the “sensitivity to the inhibitory actions, HepG2” value (HepG2 cells) was “moderately sensitive”.
